Patent publication US20030162825A1, “D-amino acid oxidase inhibitors for learning and memory” (SEPRACOR INC., priority 2001, published 2003)
Entries after “also recorded” stand apart in the source; their conditions may differ.

How the values were obtained:
[1] = tested on: rats; experiment: Morris water maze test (learning and memory); format: in vivo, rat
Experimental: Training was conducted in a circular pool (160 cm in diameter) filled with water to a depth of 35 cm. The walls of the pool were blue, and the water was made opaque by the addition of approximately 20 ml of white, non-toxic water-based food dye. Water temperature was maintained at approximately 25° C.
During training, rats learn to swim to a submerged platform (approximately 2.5 cm below the surface) constructed of Nalgene with a roughened Plexiglas surface. The surface diameter was approximately 16 cm and its height was approximately 27.5 cm. Experiments were conducted in a darkened room. Lighting of the water-maze was arranged so that illumination of the pool was dim and equivalent in all quadrants. Both acquisition data and retention probe data were collected using Videomex Morris maze software and interface (Columbus Instruments, Columbus, Ohio). The apparatus monitored the animal's progress using a video camera connected to a monitor and a video analysis computer that was outside the view of the swimming animal. Latencies to escape to the platform, the animal's swimming route, and its time spent in the platform-containing quadrant were measured.
Morris maze acquisition training (learning) consisted of 18 trials presented in 6 blocks of 3 trials each. During all training and testing procedures, the experimenter was blind to the animal group membership. To orient the animals to the task, training began with placement of the animal's front paws onto the platform followed by 10 sec of the animal's standing on the platform. Immediately after the third placement, training commenced with the first block of 3 trials. The platform was placed in the center of the southwest quadrant for all training. On each trial, rats were placed into the pool randomly at one of 6 different angular directions. […] Latency to escape to the platform was measured for each trial. […]
[…] The amount of time spent in the quadrant previously occupied by the platform and number of crosses over the previous position of the platform were recorded for each animal. […]

[2] = target: T1, Porcine kidney D-amino acid oxidase (Sus scrofa, UniProt P00371); experiment: D-amino acid oxidase inhibition assay (Amplex Red Hydrogen Peroxide Assay Kit); format: biochemical; settings: D-serine substrate, reaction time five minutes; for inhibition at 40 µg/mL: inhibitor at 40 μg/mL
T1 construct: purchased Sigma Company A-5222; host or cells: porcine kidney
T1 sequence (P00371 whole entry): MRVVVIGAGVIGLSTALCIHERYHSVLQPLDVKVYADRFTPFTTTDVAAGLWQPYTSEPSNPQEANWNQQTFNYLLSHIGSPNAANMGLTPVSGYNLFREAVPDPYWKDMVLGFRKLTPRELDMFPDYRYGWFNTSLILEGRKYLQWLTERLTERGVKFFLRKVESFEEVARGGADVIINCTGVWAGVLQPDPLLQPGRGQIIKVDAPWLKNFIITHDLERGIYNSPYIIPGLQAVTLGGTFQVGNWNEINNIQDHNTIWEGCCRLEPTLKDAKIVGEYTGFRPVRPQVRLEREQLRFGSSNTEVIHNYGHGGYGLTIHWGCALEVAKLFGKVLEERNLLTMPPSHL
Experimental: A working solution was prepared by mixing: sodium phosphate buffer (8.7 ml, 0.025M, pH 7.4), D-serine solution (1.0 ml, 100 mM in water), horseradish peroxidase (0.2 ml, 200 U/ml in buffer), and Amplex™ Red solution (0.1 ml, 1 mg dye in 200 μl in DMSO (50 μM in DMSO)). A working enzyme solution was prepared by diluting a D-amino oxidase stock solution (65 U/ml) one hundred fold. The working solution (100 μl) was transferred to wells of a Microfluor B microtiter plate and a solution of the inhibitor in DMF was added.
Control experiments were carried out using DMF in the absence of inhibitor.

IC50 [2] [µM] | inhibition at 40 µg/mL [2] [%] | Structure (SMILES) | other results
 |  | O=C(O)c1cc2ccccc2[nH]1 [I-2-C, indole-2-carboxylic acid] | retention (seconds swimming in the quadrant previously containing the escape platform) ([1]; first experiment: 200 mg/kg ip four times, one hour before first, second, fourth and sixth training period, four days after training): improved retention; retention in seconds ([1]; second experiment: single injection 200 mg/kg, eight days later, 200 mg/kg): improving effect on retention; also recorded: improved retention; retention ([1]; third experiment: single injection 200 mg/kg, first probe trial): improved retention
2 | 93 | O=C(O)c1cc2ccccc2[nH]1 [compound 1] | 
 | 90 | O=C(O)c1cc2cc(O)ccc2[nH]1 [compound 2] | 
 | 87 | O=C(O)c1ccc[nH]1 [compound 3] | 
 | 86 | O=C(O)c1cc2cc(Cl)ccc2[nH]1 [compound 4] | 
 | 85 | O=C(O)c1cc2ccccc2o1 [compound 5] | 
 | 58 | Cn1c(C(=O)O)cc2ccccc21 [compound 6] | 
 | 32 | COc1ccc2[nH]c(C(=O)O)cc2c1 [compound 7] | 
17 |  | O=C(O)c1ccc([N+](=O)[O-])c2c1NC(c1ccccc1)C1CC=CC21 (stereo not shown) [compound 10] | 
29 |  | O=C(O)c1ccc([N+](=O)[O-])c2c1NC(c1ccc([N+](=O)[O-])cc1)C1CC=CC21 (stereo not shown) [compound 11] | 
